Earlier results, collected in paper PMC11609630 (Cancer Discovery, 2024).

System: patients with TNBC

## sacituzumab govitecan: TROP2-targeting antibody–drug conjugate
Cohort of relapsed patients with TNBC
  gain in ORR compared with chemotherapy: 30%
Such as neutropenia and leukopenia
  patients experiencing adverse events of grade 3 or higher: more than 50%
